Legend:
Test in all cases: biochemical
[1] = target: T1, panel of 374 wild-type kinases (Homo sapiens, UniProt P36888); conditions: read-out: % Enzyme Activity (relative to DMSO controls), FLT3
T1 construct: purchased Reaction Biology Corporation
T1 sequence (P36888 27-993): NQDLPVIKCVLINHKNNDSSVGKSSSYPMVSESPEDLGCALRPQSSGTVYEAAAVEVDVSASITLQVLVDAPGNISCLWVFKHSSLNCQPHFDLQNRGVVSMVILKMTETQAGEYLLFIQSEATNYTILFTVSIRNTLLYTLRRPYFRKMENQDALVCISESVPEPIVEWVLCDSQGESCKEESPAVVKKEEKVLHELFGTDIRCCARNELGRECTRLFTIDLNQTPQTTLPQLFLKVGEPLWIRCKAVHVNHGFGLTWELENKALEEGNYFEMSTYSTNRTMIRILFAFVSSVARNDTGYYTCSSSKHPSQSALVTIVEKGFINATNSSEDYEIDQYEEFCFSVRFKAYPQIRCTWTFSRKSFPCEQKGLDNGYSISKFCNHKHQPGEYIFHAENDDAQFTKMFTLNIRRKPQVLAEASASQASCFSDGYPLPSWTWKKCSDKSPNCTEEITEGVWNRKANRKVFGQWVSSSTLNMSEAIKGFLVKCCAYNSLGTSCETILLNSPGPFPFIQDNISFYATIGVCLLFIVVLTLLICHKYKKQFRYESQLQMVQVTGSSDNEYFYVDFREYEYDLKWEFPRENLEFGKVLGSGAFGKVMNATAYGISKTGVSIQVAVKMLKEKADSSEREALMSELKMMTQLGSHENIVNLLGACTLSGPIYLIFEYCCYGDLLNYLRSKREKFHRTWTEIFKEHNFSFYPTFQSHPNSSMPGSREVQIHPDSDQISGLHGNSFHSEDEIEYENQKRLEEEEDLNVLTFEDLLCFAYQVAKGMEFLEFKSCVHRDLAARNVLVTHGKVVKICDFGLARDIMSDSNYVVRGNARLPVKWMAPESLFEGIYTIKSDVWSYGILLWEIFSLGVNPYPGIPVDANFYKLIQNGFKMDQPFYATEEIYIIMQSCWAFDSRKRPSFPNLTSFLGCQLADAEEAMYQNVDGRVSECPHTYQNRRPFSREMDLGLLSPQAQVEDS

[2] = target: T2, panel of 374 wild-type kinases (Homo sapiens, UniProt Q9Y243); conditions: read-out: % Enzyme Activity (relative to DMSO controls), AKT3
T2 construct: purchased Reaction Biology Corporation

[3] = target: T3, panel of 374 wild-type kinases (Homo sapiens, UniProt Q86YV6); conditions: read-out: % Enzyme Activity (relative to DMSO controls), MYLK4
T3 construct: purchased Reaction Biology Corporation
T3 sequence (Q86YV6 1-388): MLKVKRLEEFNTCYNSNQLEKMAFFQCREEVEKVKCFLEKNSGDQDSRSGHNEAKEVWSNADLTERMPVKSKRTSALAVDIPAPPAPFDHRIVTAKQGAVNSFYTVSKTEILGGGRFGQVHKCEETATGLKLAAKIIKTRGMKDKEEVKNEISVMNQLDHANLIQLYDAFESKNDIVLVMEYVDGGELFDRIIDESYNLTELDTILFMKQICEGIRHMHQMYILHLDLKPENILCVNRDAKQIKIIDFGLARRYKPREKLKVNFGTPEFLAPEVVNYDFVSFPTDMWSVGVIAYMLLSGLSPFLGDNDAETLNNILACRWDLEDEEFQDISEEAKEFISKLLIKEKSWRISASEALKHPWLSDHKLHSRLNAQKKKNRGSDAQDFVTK

[4] = target: T4, panel of 374 wild-type kinases (Homo sapiens, UniProt Q9BXA7); conditions: read-out: % Enzyme Activity (relative to DMSO controls), kinase STK22D/TSSK1
T4 construct: purchased Reaction Biology Corporation
T4 sequence (Q9BXA7 1-367): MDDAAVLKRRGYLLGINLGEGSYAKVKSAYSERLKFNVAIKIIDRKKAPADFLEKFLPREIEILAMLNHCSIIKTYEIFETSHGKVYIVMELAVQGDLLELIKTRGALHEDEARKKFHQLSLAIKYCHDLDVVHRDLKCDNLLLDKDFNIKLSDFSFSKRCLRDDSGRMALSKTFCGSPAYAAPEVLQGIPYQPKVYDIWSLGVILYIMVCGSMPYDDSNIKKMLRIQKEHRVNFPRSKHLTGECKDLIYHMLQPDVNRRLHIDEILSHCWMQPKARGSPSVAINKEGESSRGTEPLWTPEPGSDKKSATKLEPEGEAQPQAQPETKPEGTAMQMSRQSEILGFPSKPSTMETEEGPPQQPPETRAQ

[5] = target: T5, panel of 374 wild-type kinases (Homo sapiens, UniProt Q9Y4K4); conditions: read-out: % Enzyme Activity (relative to DMSO controls), KHS/MAP4K5
T5 construct: purchased Reaction Biology Corporation

[6] = target: T6, panel of 374 wild-type kinases (Homo sapiens, UniProt P27448); conditions: read-out: % Enzyme Activity (relative to DMSO controls), MARK3
T6 construct: purchased Reaction Biology Corporation
T6 sequence (P27448 whole entry): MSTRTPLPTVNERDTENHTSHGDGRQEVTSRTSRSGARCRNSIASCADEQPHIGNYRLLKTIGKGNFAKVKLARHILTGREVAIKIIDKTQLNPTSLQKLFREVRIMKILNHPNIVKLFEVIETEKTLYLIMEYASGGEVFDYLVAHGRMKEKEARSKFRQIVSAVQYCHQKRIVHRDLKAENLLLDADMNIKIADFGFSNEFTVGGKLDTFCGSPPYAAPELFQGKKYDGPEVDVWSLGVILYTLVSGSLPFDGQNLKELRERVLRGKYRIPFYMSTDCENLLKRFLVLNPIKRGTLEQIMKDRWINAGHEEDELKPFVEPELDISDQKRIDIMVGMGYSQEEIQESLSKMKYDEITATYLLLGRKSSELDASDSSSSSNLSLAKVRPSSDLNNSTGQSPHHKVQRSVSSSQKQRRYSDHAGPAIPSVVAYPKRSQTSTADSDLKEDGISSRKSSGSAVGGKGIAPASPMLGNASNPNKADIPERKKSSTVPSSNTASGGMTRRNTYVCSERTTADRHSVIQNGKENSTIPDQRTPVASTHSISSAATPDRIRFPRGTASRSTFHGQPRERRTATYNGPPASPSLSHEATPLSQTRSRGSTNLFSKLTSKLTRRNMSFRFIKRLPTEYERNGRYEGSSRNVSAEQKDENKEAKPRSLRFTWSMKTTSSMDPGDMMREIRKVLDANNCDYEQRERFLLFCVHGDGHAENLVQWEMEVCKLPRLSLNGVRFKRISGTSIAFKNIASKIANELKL

T5 sequence (Q9Y4K4 whole entry): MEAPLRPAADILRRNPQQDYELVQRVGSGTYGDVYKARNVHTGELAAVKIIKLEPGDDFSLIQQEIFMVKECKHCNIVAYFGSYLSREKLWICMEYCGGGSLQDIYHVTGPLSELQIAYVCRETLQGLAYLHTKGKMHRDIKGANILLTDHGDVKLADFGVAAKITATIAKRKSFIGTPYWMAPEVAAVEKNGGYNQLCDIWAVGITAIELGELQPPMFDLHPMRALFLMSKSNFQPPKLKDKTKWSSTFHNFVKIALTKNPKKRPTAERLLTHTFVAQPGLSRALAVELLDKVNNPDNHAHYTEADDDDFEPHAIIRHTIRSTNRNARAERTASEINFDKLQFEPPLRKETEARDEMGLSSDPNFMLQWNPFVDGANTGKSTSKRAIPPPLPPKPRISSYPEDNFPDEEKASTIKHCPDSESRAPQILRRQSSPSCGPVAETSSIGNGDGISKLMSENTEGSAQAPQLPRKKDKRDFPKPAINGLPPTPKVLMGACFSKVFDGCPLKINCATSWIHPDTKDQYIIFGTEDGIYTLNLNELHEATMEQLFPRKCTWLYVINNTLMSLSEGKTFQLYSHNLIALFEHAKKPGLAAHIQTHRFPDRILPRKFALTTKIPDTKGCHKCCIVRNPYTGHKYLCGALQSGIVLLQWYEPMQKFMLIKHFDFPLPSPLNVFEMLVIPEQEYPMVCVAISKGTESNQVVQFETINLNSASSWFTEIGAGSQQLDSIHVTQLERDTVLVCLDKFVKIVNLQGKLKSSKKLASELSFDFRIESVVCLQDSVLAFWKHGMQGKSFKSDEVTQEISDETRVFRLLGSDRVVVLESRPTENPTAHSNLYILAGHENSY
T2 sequence (Q9Y243 whole entry): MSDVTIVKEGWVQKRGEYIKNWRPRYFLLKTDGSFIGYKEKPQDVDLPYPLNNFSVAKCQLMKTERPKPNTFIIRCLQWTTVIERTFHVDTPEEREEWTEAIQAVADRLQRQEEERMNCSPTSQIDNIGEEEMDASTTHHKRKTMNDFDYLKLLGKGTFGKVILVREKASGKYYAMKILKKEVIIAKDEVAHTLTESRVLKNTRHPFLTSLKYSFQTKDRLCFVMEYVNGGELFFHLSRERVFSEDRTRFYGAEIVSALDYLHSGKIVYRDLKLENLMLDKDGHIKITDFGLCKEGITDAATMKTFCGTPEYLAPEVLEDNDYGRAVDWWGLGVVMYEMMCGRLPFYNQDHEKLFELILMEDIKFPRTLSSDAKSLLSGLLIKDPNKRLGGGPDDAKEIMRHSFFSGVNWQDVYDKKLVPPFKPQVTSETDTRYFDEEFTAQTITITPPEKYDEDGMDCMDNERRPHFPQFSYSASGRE

Row | Compound | remaining activity at 5 µM [1] [%] | remaining activity at 5 µM [2] [%] | remaining activity at 5 µM [3] [%] | remaining activity at 5 µM [4] [%] | remaining activity at 5 µM [5] [%] | remaining activity at 5 µM [6] [%] | remaining activity at 10 µM ([1]; 10 uM) [%] | remaining activity at 10 µM ([2]; 10 uM) [%] | remaining activity at 10 µM ([3]; 10 uM) [%] | remaining activity at 10 µM ([4]; 10 uM) [%] | remaining activity at 10 µM ([5]; 10 uM) [%] | remaining activity at 10 µM ([6]; 10 uM) [%]
1 | O=C(Nc1cnn(-c2csc(C(=O)NC3COC3)c2)c1)Nc1ccccc1Cl [Compound 17, 4-(4-(3-(2-chlorophenyl)ureido)-1H-pyrazol-1-yl)-N-(oxetan-3-yl)thiophene-2-carboxamide] | 89.7 | 87.3 | 85.2 | 102 | 99.1 | 98.2 | – | – | – | – | – | –
2 | O=C(Nc1cnn(-c2csc(C(=O)NC3COC3)c2)c1)Nc1c(F)cccc1Cl [Compound 25, 4-(4-(3-(2-chloro-6-fluorophenyl)ureido)-1H-pyrazol-1-yl)-N-(oxetan-3-yl)thiophene-2-carboxamide] | 99.2 | 97.6 | 91.7 | 107 | 103 | 99.3 | – | – | – | – | – | –
3 | Cc1sc(C(=O)NC2COC2)cc1-n1cc(NC(=O)Nc2c(F)cccc2Cl)cn1 [Compound 27, 4-(4-(3-(2-chloro-6-fluorophenyl)ureido)-1H-pyrazol-1-yl)-5-methyl-N-(oxetan-3-yl)thiophene-2-carboxamide] | – | – | – | – | – | – | 69.1 | 94.8 | 109 | 103 | 98.4 | 102

Source: patent US20240246942A1, “KINASE INHIBITORS FOR THE TREATMENT OF NEURODEGENERATIVE DISEASES” (priority 2020, published 2024)
